Measurements taken from patent publication EP3593822A1, “THERAPEUTIC AND DIAGNOSTIC APPLICATIONS OF A NEW METHOD OF MONITORING OF NEUROGLIAL INTERACTION MEMRI)” (Theranexus, priority 2018, dated 2020).
Counter-ions that a name gives are not always drawn.

Biological target: T1, Cx43 (Mus musculus, UniProt P23242)
T1 construct: from tissue; host or cells: brain of living wild-type C57BL/6 male mice (in vivo)
Test: Manganese-enhanced MRI (MEMRI) of mouse brain after administration of connexin modulators
Assay type: in vivo, wild-type C57BL/6 male mice
Conditions: for T1-w signal intensity (% of control): 1 mg/kg i.p. 2.5h before imaging, 24h after MnCl2 50 mg/kg i.p., mean ± SEM; for increase of T1-w signal intensity: n=6, change versus control, 1 mg/kg i.p.
Method: The MRI measurements were performed on 42 wild-type C57BL/6 male mice. All mice weighed between 25 and 35 g. Mice were housed 4-5 per cage under standard conditions (12/12 h light-dark cycle, light on at 7 am, 22 ± 1°C ambient temperature, 60% relative humidity). This work was carried out in accordance with the Policies of the French Committee of Ethics. Animal surgery and experimentations conducted in this study were authorized by the French Direction of Veterinary Services and all efforts were made to improve animal welfare and minimize animals suffering.
All animals were injected intraperitoneally with MnCl2 50 mg/kg. Animals received an injection of treatment (or saline) 24h after the MnCl2 administration, and were imaged 2.5h later.
The mice were anesthetized with 0.5-1.0% isoflurane in air throughout the experiments. The respiration rate was monitored and the body temperature was maintained at 36.5 °C using an MR-compatible, feedback-controlled air heating system (model 1025; SA Instruments, NY). A capillary filled with 100 µM MnCl2 was placed on the head, inside the RF coil, and was used as signal intensity reference.
The T1-weighted images were acquired using a 3D rapid acquisition with relaxation enhancement (RARE) sequence: RARE factor 4, repetition time/echo time = 250 ms / 6 ms, 4 averages. For T1 relaxation time measurements, a true fast Imaging with Steady-state free Precession (trueFISP) sequence was used with the following acquisition parameters: repetition time/echo time = 3.66/1.83 ms, flip angle = 10, inversion time = 80 ms, number of inversion times = 60, 2 averages.
The position of the brain image was co-registered to a template using SPM8 software (Welcome Trust Center for Neuroimaging, UK). The template image was co-registered to mouse brain atlas (Paxinos and Franklin's the Mouse Brain in Stereotaxic Coordinates 3rd Edition). T1-weighted signals were normalized using the signal intensity from the reference tube. T1 maps were calculated as described previously elsewhere (74). Eighteen regions of interest (ROIs) were defined using the mouse brain atlas.
The averaged T1-weighted signals and T1 values were calculated using an in house written Matlab program. To compensate for differences in coil sensitivity between left and right channels we calculated the signal intensities in ROIs drawn in the left and right cerebral cortex, including the somatosensory cortex and insular cortex, (ROIcortex_left ROIcortex_right). The averaged T1-weighted signal intensity on the left side (SIleft) was then corrected following the equation: SIleft_corrected = SIleft × SIcortex_right /SIcortex_left [formula]
Statistical analyses were performed using GraphPad Prism version 7.0c. Data were analyzed using Mann-Whitney non-parametric test, paired t test or one sample t test compared to the hypothetical value 1 or 100 as appropriate. In each experiment, a level of p<0.05 was accepted as evidence for a statistically significant effect. * p<0.05; ** p<0.01; *** p<0.001. Response of the MEMRI signal after drugs administration are expressed as means ± SEM of percent of control. The remaining data are expressed as mean ± SEM.
For all, MEMRI signals are expressed as percentage of control. Statistical significances are based on the comparison to the hypothetical value 100%.

[1] = LPB = Lateral parabrachial nucleus
[2] = mPFC = Medial prefrontal cortex

T1 sequence (P23242 2-382 limits assumed): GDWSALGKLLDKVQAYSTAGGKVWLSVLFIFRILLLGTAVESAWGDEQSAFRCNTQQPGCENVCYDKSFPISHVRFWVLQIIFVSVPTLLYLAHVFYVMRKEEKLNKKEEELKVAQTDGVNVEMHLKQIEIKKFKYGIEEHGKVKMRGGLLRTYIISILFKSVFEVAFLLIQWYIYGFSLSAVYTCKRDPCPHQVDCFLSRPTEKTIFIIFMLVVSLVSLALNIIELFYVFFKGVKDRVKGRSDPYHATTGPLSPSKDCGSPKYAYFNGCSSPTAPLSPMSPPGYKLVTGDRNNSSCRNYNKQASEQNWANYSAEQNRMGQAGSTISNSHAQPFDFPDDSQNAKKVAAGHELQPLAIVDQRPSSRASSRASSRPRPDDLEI

Row | T1-w signal intensity (% of control) (DRa = Dorsal raphe pallidus) | T1-w signal intensity (% of control) (Hyp = Hypothalamus) | T1-w signal intensity (% of control) (LC = Locus coeruleus) | T1-w signal intensity (% of control) [1] | increase of T1-w signal intensity (olfactory bulb) | increase of T1-w signal intensity (substantia nigra) | T1-w signal intensity (% of control) (AC = Auditory cortex) | T1-w signal intensity (% of control) (Cg = Cingulate cortex) | T1-w signal intensity (% of control) (Cpu = Caudate putamen) | T1-w signal intensity (% of control) (Hip = Hippocampus) | T1-w signal intensity (% of control) (IC = Insular cortex) | T1-w signal intensity (% of control) (MC = Motor cortex) | T1-w signal intensity (% of control) (OB = Olfactory bulb) | T1-w signal intensity (% of control) (OC = Orbital cortex) | T1-w signal intensity (% of control) (PrL = Prelimbic cortex) | T1-w signal intensity (% of control) (SC = Somatosensory cortex) | T1-w signal intensity (% of control) (SN = Substantia nigra) | T1-w signal intensity (% of control) (Sep = Septum) | T1-w signal intensity (% of control) (ThN = Thalamic nuclei) | increase of T1-w signal intensity (hypothalamus) | Structure (SMILES) | further results
1 | 113 ± 6.84 % of control | 113 ± 8.39 % of control | 111 ± 7.61 % of control | 111 ± 6.96 % of control | +26.5% | +19,2% | – | – | – | – | – | – | – | – | – | – | – | – | – | – | OC(c1cc(C(F)(F)F)nc2c(C(F)(F)F)cccc12)C1CCCCN1 (centres unmarked) [mefloquine, Mefloquine] | –
2 | 112 ± 5.31 % of control | 118 ± 5.38 % of control | 104 ± 6.23 % of control | 106 ± 6.15 % of control | ~+47.4% | ~+17.9% | 117 ± 5.68 % of control | 127 ± 4.49 % of control | 130 ± 3.90 % of control | 118 ± 4.32 % of control | 128 ± 5.17 % of control | 122 ± 4.61 % of control | 147 ± 4.91 % of control | 138 ± 4.69 % of control | 136 ± 4.41 % of control | 120 ± 4.90 % of control | 118 ± 5.67 % of control | 136 ± 3.68 % of control | 120 ± 4.87 % of control | approximately +18.5% | Cc1ccc(Cl)c(Nc2ccccc2C(=O)O)c1Cl [meclofenamic acid] | T1-w signal intensity (% of control) (LPB = Lateral parabrachial nucleus, listed as MFA): 106 ± 6,15 % of control; T1-w signal intensity (% of control) [2]: 136 ± 4.33 % of control
3 | 122 ± 6.86 % of control | 121 ± 7.05 % of control | 119 ± 5.69 % of control | 119 ± 6.07 % of control | – | – | 114 ± 4.04 % of control | 123 ± 5.73 % of control | 120 ± 6.01 % of control | 118 ± 4.73 % of control | 118 ± 5.62 % of control | 122 ± 5.09 % of control | 123 ± 9.21 % of control | 123 ± 8.23 % of control | 121 ± 7.09 % of control | 120 ± 4.88 % of control | 117 ± 6.97 % of control | 119 ± 6.95 % of control | 121 ± 5.47 % of control | ~+20.9% | O=C(NCC1CCCCN1)c1cc(OCC(F)(F)F)ccc1OCC(F)(F)F (centres unmarked) [flecainide, flecainide acetate salt] | increase of T1-w signal intensity (dorsal raphe pallidus): approximately +21.9%; increase of T1-w signal intensity (lateral parabrachial nucleus): ~+19%; increase of T1-w signal intensity (locus coeruleus): ~+19.2%; T1-w signal intensity (% of control) [2]: 121 ± 6.86 % of control
